The source of these data is PMC13076199, “Convergent evolution of hexenal isomerases in Lepidoptera and plants” (Nature Ecology & Evolution, 2026).

The target of this assay is T1, MsHi-1 (Manduca sexta, UniProt Z9A1Z6DDJ7).
T1 construct: coding region in pGEX-4T-1, N-terminal GST fusion, E. coli BL21 (DE3), GST Sepharose
The experiment in a line: Hi activity with and without added FAD, SPME-GC-qToF-MS. The conditions noted are these: 1 mM FAD, 0.2 mM Z3AL, 20 mM Tris-HCl pH 7.0, 20 µg BSA. It is filed as biochemical.

With `Cc1cc2nc3c(=O)[nH]c(=O)nc-3n(C[C@H](O)[C@H](O)[C@H](O)COP(=O)(O)OP(=O)(O)OC[C@H]3O[C@@H](n4cnc5c(N)ncnc54)[C@H](O)[C@@H]3O)c2cc1C` [flavin adenine dinucleotide], the “Hi activity with and without added FAD, SPME-GC-qToF-MS” value is “addition of FAD to enzymatic reactions moderately increased Hi activity across all tested homologues”.
